± gives the standard deviation of the averaged measurements.
How the values were obtained:
Settings in all cases: 72 h
[1] = tested on: U2OS; test: relative viability EC50 (midpoint between 100% and the lowest measured viability); higher = less toxic
[2] = tested on: Vero E6; test: as above
[3] = tested on: HepG2; test: as above
[4] = tested on: Calu-3; test: as above
[5] = tested on: Caco-2; test: as above
[6] = tested on: U2OS; test: drug sensitivity score (DSS) for viability; higher = more toxic; extreme values may be limits of the assay
[7] = tested on: Vero E6; test: as above
[8] = tested on: HepG2; test: as above
[9] = tested on: Calu-3; test: as above
[10] = tested on: Caco-2; test: as above
[11] = tested on: U2OS; test: cell viability relative to DMSO; higher = less toxic
[12] = tested on: Vero E6; test: as above
[13] = tested on: HepG2; test: as above
[14] = tested on: Calu-3; test: as above
[15] = tested on: Caco-2; test: as above

Structure (SMILES) | relative viability EC50 [1] [µM] | relative viability EC50 [2] [µM] | relative viability EC50 [3] [µM] | relative viability EC50 [4] [µM] | relative viability EC50 [5] [µM] | drug sensitivity score [6] | drug sensitivity score [7] | drug sensitivity score [8] | drug sensitivity score [9] | drug sensitivity score [10] | cell viability ([11]; 1 nM) [%] | cell viability ([11]; 10 nM) [%] | cell viability ([11]; 100 nM) [%] | cell viability ([11]; 1000 nM) [%] | cell viability ([11]; 10000 nM) [%] | cell viability ([12]; 1 nM) [%] | cell viability ([12]; 10 nM) [%] | cell viability ([12]; 100 nM) [%] | cell viability ([12]; 1000 nM) [%] | cell viability ([12]; 10000 nM) [%] | cell viability ([13]; 1 nM) [%] | cell viability ([13]; 10 nM) [%] | cell viability ([13]; 100 nM) [%] | cell viability ([13]; 1000 nM) [%] | cell viability ([13]; 10000 nM) [%] | cell viability ([14]; 1 nM) [%] | cell viability ([14]; 10 nM) [%] | cell viability ([14]; 100 nM) [%] | cell viability ([14]; 1000 nM) [%] | cell viability ([14]; 10000 nM) [%] | cell viability ([15]; 1 nM) [%] | cell viability ([15]; 10 nM) [%] | cell viability ([15]; 100 nM) [%] | cell viability ([15]; 1000 nM) [%] | cell viability ([15]; 10000 nM) [%]
Cc1ccc2c(c1)C(=O)[C@]1(O)CCN(c3ccccc3)C1=N2 (racemic) [blebbistatin-(+/-)] | > 10 | > 10 | > 10 | > 10 | > 10 | 0.05 ± 0.071 | 0.15 ± 0.21 | 0 | 0 | 0.3 ± 0.42 | 99.4 ± 1.6 | 101.2 ± 0.78 | 97.8 ± 1.8 | 99.85 ± 0.35 | 95.2 ± 12 | 98.6 ± 0.99 | 96.6 ± 4.5 | 96.4 ± 4.4 | 95.5 ± 3.9 | 93.4 ± 10 | 98 ± 1.3 | 88.2 ± 0.92 | 98.3 ± 8.3 | 89 ± 9.6 | 96 ± 7 | 99 ± 11 | 95.9 ± 0.28 | 95.5 ± 10 | 109 ± 3.2 | 136 ± 9.8 | 100 ± 2.5 | 97.25 ± 0.49 | 97.9 ± 2.1 | 98.5 ± 1.1 | 94.2 ± 16
C=C[C@H]1CN2CC[C@H]1CC2C(OC(=O)OCC)c1ccnc2ccc(OC)cc12 (stereo in doubt) [quinine-ethyl-carbonate] | > 10 | > 10 | > 10 | > 10 | > 10 | 0 | 0 | 0 | 0 | 0 | 99.9 | 97.3 | 101 | 96.9 | 96.9 | 104 | 95.9 | 105 | 107 | 100 | 93.2 | 97.7 | 100 | 104 | 97.4 | 99.9 | 104 | 102 | 90.4 | 101 | 114 | 97.1 | 94.2 | 105 | 114
OC[C@H]1O[C@@H](O[C@@H]2[C@H](O)[C@@H](O)[C@H](O[C@H]3[C@H](O)[C@@H](O)C(O)O[C@@H]3CO)O[C@@H]2CO)[C@H](O)[C@@H](O)[C@H]1O (stereo not given in full) [4-galactosyllactose] | > 10 | > 10 | > 10 | > 10 | > 10 | 0 | 0 | 0 | 0 | 2.5 | 103 | 96.4 | 102 | 94.8 | 101 | 97.3 | 105 | 103 | 101 | 99.2 | 111 | 113 | 101 | 102 | 98.3 | 102 | 99.3 | 98.2 | 93.3 | 101 | 118 | 96.6 | 123 | 78.8 | 91.7
CCN1C(C)(C)CC(Oc2ccc(C(=O)Nc3ccc(NC(=O)Nc4cc(C(C)(C)C)on4)cc3)nc2)CC1(C)C [AC-710] | > 10 | > 10 | > 10 | > 10 | > 10 | 0 | 0 | 0 | 0.2 | 0 | 98.9 | 97 | 98.9 | 99.9 | 94.3 | 101 | 106 | 99.9 | 104 | 96.8 | 100 | 97.7 | 94.1 | 105 | 87.3 | 108 | 105 | 97.4 | 89.4 | 94 | 100 | 89.4 | 100 | 94.4 | 88.2
OB1OCc2cc(Cl)ccc21 [AN2718] | > 10 | > 10 | > 10 | > 10 | > 10 | 0 | 0 | 0 | 0 | 0.4 | 101 | 98 | 96.1 | 98.2 | 98.7 | 101 | 99.8 | 94.7 | 96.9 | 103 | 120 | 107 | 107 | 94 | 108 | 100 | 89 | 90.6 | 102 | 92.8 | 93.8 | 102 | 82.2 | 98.8 | 82.7
NC(=O)c1cn([C@@H]2O[C@H](CO)[C@@H](O)[C@H]2O)c2ncnc(N)c2c1=O [API-1] | 2.98 | 2.1 | 0.544 | 0.639 | 1.53 | 5.9 | 4 | 13.6 | 10.6 | 5.6 | 95.7 | 98.8 | 91.1 | 97.5 | 0.9 | 97 | 89.7 | 94.8 | 93 | 47.3 | 106 | 97.9 | 84.9 | 39 | 4.5 | 97 | 107 | 87.5 | 52.7 | 20.7 | 92.3 | 92.9 | 85 | 80.1 | 36.4
N[C@@H]1CCCN(c2c(/C=C3\SC(=O)NC3=O)cccc2-c2ccccc2)C1 [AZD1208] | > 10 | > 10 | > 10 | > 10 | > 10 | 0 | 0 | 1.2 | 0 | 0 | 97.1 | 88.9 | 93.3 | 95.6 | 96.7 | 98.3 | 99.9 | 87.9 | 91.8 | 96.2 | 92.6 | 104 | 93.5 | 89.8 | 80 | 105 | 94.4 | 92.4 | 86.6 | 99.8 | 103 | 97.5 | 109 | 95.3 | 98.6
NCC(=O)O [AZD4282] | > 10 | > 10 | > 10 | > 10 | > 10 | 0 | 0 | 0 | 0 | 0 | 93.7 | 96.7 | 100 | 98.9 | 102 | 102 | 103 | 99.3 | 104 | 100 | 95.3 | 96 | 96.6 | 102 | 101 | 86.3 | 101 | 96.3 | 102 | 97.3 | 99 | 104 | 86.4 | 99.7 | 103
Cc1ncc(-c2ccnc(Nc3ccc(S(C)(=O)=O)cc3)n2)n1C(C)C [AZD5438] | 3.29 | 2.36 | 1.58 | 3.65 | 2.84 | 4.8 | 6.2 | 8.7 | 2.9 | 4.4 | 104 | 105 | 108 | 102 | 10.1 | 97.6 | 102 | 96.4 | 91.6 | 12.6 | 100 | 95 | 106 | 77.3 | 6.7 | 98.9 | 97.1 | 104 | 106 | 38.1 | 97.1 | 97.8 | 104 | 96.8 | 27.7
COc1cc(C)[nH]c(=O)c1CNC(=O)c1c(C)n([C@H](C)C2CCOCC2)c2ccccc12 [CPI-360] | > 10 | > 10 | > 10 | > 10 | > 10 | 0 | 0 | 0 | 0 | 0 | 99.7 | 101 | 100 | 102 | 101 | 108 | 102 | 108 | 96.3 | 104 | 107 | 97.6 | 96.7 | 90.7 | 92.2 | 101 | 113 | 101 | 105 | 95.7 | 107 | 106 | 99.2 | 107 | 95.7
C#Cc1cccc(Nc2ncnc3cc(OC)c(OCCCCCCC(=O)NO)cc23)c1 [CUDC-101] | 1.41 | 1.67 | 0.548 | 0.419 | 1.55 | 9.6 | 8.2 | 14.7 | 14.1 | 5.4 | 97.7 | 99.6 | 93.4 | 68.5 | 2 | 98.6 | 96 | 94.6 | 80.2 | 8.4 | 96.3 | 110 | 94.9 | 25.7 | 0.1 | 96.7 | 98.8 | 81.5 | 37.2 | 9 | 97 | 89.7 | 90.6 | 81.8 | 39.6
COC(=O)c1sccc1S(=O)(=O)Nc1ccc(Nc2ccccc2)cc1OC [GSK0660] | > 10 | > 10 | > 10 | > 10 | > 10 | 0 | 0 | 0 | 0 | 0 | 101 | 95.4 | 98.8 | 95.5 | 93.5 | 91.9 | 104 | 94.8 | 102 | 104 | 91.4 | 109 | 102 | 101 | 92.6 | 106 | 102 | 101 | 93.1 | 102 | 96.8 | 86.2 | 104 | 105 | 98.9
CS(=O)(=O)N(Cc1ccco1)C[C@@H](O)Cn1c2ccccc2c2ccccc21 [KL-001] | > 10 | > 10 | > 10 | > 10 | > 10 | 0 | 0 | 0 | 0 | 0 | 98.3 | 98.4 | 99 | 93.7 | 90 | 99 | 101 | 97.6 | 100 | 98 | 98.9 | 104 | 97.2 | 104 | 106 | 105 | 93.2 | 101 | 115 | 110 | 95.6 | 98.5 | 102 | 94.1 | 94.6
NC(=O)C[C@H](N)C(=O)O [L-asparagine] | > 10 | > 10 | > 10 | > 10 | > 10 | 0 | 0.1 | 0 | 0 | 0 | 96.5 | 95.4 | 98.6 | 98.7 | 102 | 102 | 112 | 99.2 | 101 | 86.8 | 92.7 | 116 | 92.3 | 105 | 93.7 | 95.2 | 95.6 | 93.1 | 96.1 | 98 | 103 | 104 | 92.1 | 106 | 105

— the supplement of paper PMC13380429
